As a reminder, the AC50 is the concentration at which the activity in the assay is half-maximal.

Activity calls are given as the source filed them.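 The calls were made as follows: active = compounds raising the signal whose fitted half-maximal concentration is at or below their top tested dose (cut at about 25 µM in these data); inconclusive = flat fit at 30 to 70% activity, or a poor fit; inactive = the rest.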

For 95 molecules, AC50 results are on record in PubChem BioAssay AID463229 (Broad Institute, 2010).

This assay deals with INS-1E rat beta cells, no cytokines, CellTiter-Glo ATP, 48 h. The experiment in a line: cytokine-free beta-cell viability effect – INS-1E rat cells, ATP luminescence, cherry pick, counter-screen for beta-cell apoptosis protection project, dose response (AID 463229).
Take `COc1ccc(CC(=O)Nc2cccc(-c3nnc(-c4cccc(C)c4)o3)c2)cc1OC`: the AC50 is 3.46 µM.
The figure for `Cc1cc(C)n(CCC(=O)N/N=C/c2c(O)ccc3ccccc23)n1` is 9.78 µM; for `O=C(N/N=C/c1ccccc1O)c1cccc(C(F)(F)F)c1` it is 7.18 µM; for `CCOC(=O)c1c(C)oc2c1C(=O)c1ccccc1C2=O` it is 12.3 µM.
For `Cc1ccc2nc(-c3ccccn3)c(Nc3ccccc3C)n2c1` the value was 9.99 µM; for `COc1cccc2sc(Nc3nc(-c4ccccn4)cs3)nc12`, 3.75 µM; for `COc1ccc(-n2c(-c3ccc(Br)cc3)c[n+]3c2CCCCC3)cc1`, 1.06 µM.
The figure for `COc1ccc(CNCCC(c2ccc(OC(C)C)cc2)C(C)C)cc1OC` (stereo not given) is 15 µM.
For the molecule `O=C(c1ccco1)N1N=C(c2ccc(Br)cc2)CC1c1ccco1` (stereo not given), the half-maximal activity concentration (AC50) was 24.2 µM.
In the case of `CC(C)C[C@H]1CN=C(Nc2ccccc2)N1CC1CCC(C(C)(C)C)CC1` (stereo not given in full), the concentration at half-maximal activity (AC50) was 8.6 µM.
For `C=CCCc1ccc(C#N)c(SCc2c(C(=O)OCC)c3cc(OC(C)=O)c(Br)cc3n2C)n1` the value was 1.07 µM; for `O=C(N/N=C/c1ccc([N+](=O)[O-])s1)C(O)c1ccccc1` (stereo not given), 6.99 µM; for `CCCCCCCCCCOC(=O)C[N+](C)(C)C/C=C(/C)Cl`, 16.7 µM.
The figure for `CC(=O)NC(c1cccs1)c1cc([N+](=O)[O-])c2cccnc2c1O` (stereo not given) is 10.9 µM; for `Cc1sc2ncnc(N3CCN(CCOc4ccc(Cl)cc4)CC3)c2c1C` it is 4.74 µM; for `O=S(=O)(c1ccc(NC(=S)NCc2cccnc2)cc1)N1CCCCC1` it is 1.62 µM.
The figure for `Cc1cc(C)c2c(ccc3cccc[n+]32)c1` is 6.45 µM; for `c1ccc(Nc2nc(NCc3ccco3)c3ccccc3n2)cc1` it is 8.02 µM.
For the molecule `Cc1cc(Cl)c(S(=O)(=O)N2CCN(c3ccc(F)cc3)CC2)cc1OCC(=O)NC1CCCCC1`, the AC50 was 7.07 µM.
Take `CC1Sc2ccc(S(=O)(=O)N3CCC(C(=O)Nc4ccc(Cl)cc4)CC3)cc2NC1=O` (stereo not given): the AC50 is 6.13 µM.
The figure for `Cc1ccc(C)c(S(=O)(=O)N2CCN(Cc3ccc(O)c4ncccc34)CC2)c1` is 5.74 µM.
The figure for `COc1ccc(C(NC(C)=O)c2cc(Cl)c3cccnc3c2O)cc1` (stereo not given) is 7.34 µM; for `COc1ccc(-c2sc3ccccc3c2-c2ccc(OCCN3CCCCC3)cc2)cc1` it is 14.8 µM; for `O=C(NC(=S)NNC(=O)c1cnccn1)c1ccc(F)cc1` it is 3.48 µM.
Regarding `C=C1C(=O)O[C@H]2C[C@@H](C)[C@@H]3C=CC(=O)[C@@]3(C)C[C@H]12`, the AC50 was 7.64 µM.
The figure for `Cc1ccc(NC(=O)C2=C(c3ccccc3)S(=O)(=O)CCS2(=O)=O)cc1` is 12.6 µM.
For `CCN(CC)c1ccc(/C=N/NC(=O)c2cccc(S(=O)(=O)N3CCOCC3)c2)c(O)c1` the value was 2.12 µM; for `O=C(Nc1nc(-c2ccccn2)cs1)c1ccc(Br)s1`, 6.75 µM; for `CCOc1cccc(/C=N/NC(=O)c2ccc3c(c2)OCCO3)c1O`, 8.21 µM.
On to `COc1ccc(-n2c(-c3ccc(Cl)cc3)c[n+]3c2CCCCC3)cc1`, for which the AC50 is 1.6 µM.
`C=CCn1c(=NC(=O)c2cc(-c3cccs3)nc3ccccc23)sc2cc(S(N)(=O)=O)ccc21`: the AC50 was 17.9 µM.
Take `COc1ccc([C@H]2CC(=O)C=C(c3ccnc4ccc(Cl)cc34)C2)cc1`: the AC50 is 6.01 µM.
The figure for `O=C(Nc1nc(-c2ccccn2)cs1)c1cccc(-n2cnnn2)c1` is 7.05 µM.
For `CN(C)CCCNS(=O)(=O)c1ccc(NC2CCCCCC2)c([N+](=O)[O-])c1` the value was 7.27 µM; for `Oc1ccc(CNc2ccccc2)c2cccnc12`, 22.8 µM.
Take `c1ccc(CCNc2ncnc3ccccc23)cc1`: the AC50 was 1.71 µM.
The figure for `Cc1ccc(NC(=O)Nc2cccc([N+](=O)[O-])c2)cc1F` is 8.06 µM; for `COc1ccc(CCNc2ncnc3sccc23)cc1OC` it is 1.13 µM.
For the molecule `CCCOc1ccc(CSc2nc3ccccc3[nH]2)cc1`, the AC50 is 5.41 µM.
As for `Nc1nonc1-n1nnc(C(=O)N/N=C/c2cc(Br)ccc2O)c1CNc1ccccc1`, the AC50 was 8.29 µM.
The figure for `c1cnc(N2CCN(Cc3c[nH]c4ccccc34)CC2)nc1` is 4.83 µM.
Take `C=C1C(O)[C@@H]2O[C@]3(CC[C@H](/C=C/C(C)[C@@H]4CC(C)=CC5(O[C@H](C[C@@](C)(O)C(=O)O)CCC5O)O4)O3)CC[C@H]2O[C@@H]1C(O)CC(C)[C@H]1OC2(CCCCO2)CCC1C` (stereo not given in full): the AC50 is less than 0.195 µM.
For `C/C(=N\NC(=O)c1ccc(Cl)c(Cl)c1)c1ccccn1` the value was 0.98 µM; for `N#Cc1ccc(NC(=O)Nc2ccc(Cl)cc2)cc1`, 6.57 µM.
For `COc1ccc(-c2ccc3c(c2)S(=O)(=O)c2cccc(C(=O)NCCOc4ccccc4Cl)c2C3=O)cc1OC` the value was 3.5 µM; for `N=c1ccn(Cc2ccc(Cl)cc2Cl)cc1`, 7.81 µM.
The figure for `CC(C)C(=O)NC(c1cccs1)c1cc([N+](=O)[O-])c2cccnc2c1O` (stereo not given) is 9.51 µM.
For the molecule `C=C1C(=O)O[C@@H]2C[C@@H](C)[C@@H]3C=CC(=O)[C@@]3(C)[C@@H](OC(=O)CC(=O)O[C@H]3[C@@H]4C(=C)C(=O)O[C@@H]4C[C@@H](C)[C@@H]4C=CC(=O)[C@]43C)[C@H]12`, the AC50 was 0.386 µM.
For `N#CC(c1cccc(Cl)c1)c1ccc2c(C(F)(F)F)cc(C(F)(F)F)nc2n1` (stereo not given) the value was 0.868 µM; for `CC(C)(C)C1CCC2(CC1)C(C#N)=C(SCC(=O)NC1CCCCC1)NC(=O)C2C#N` (stereo not given), 15.9 µM; for `O=C(CCC(=O)Nc1ccc(Br)cc1)N/N=C/c1ccccc1O`, 14.6 µM.
Turning to `O=C(Nc1ccc(Cl)cc1)Nc1nnc(CSCc2ccc(Cl)cc2)s1`, the AC50 is 6.74 µM.
In the case of `CCCCCCn1ccc(=N)cc1`, the AC50 is 3.12 µM.
The figure for `CC(=O)CSc1ccc(-c2nc3ccccc3[nH]2)cn1` is 6.38 µM; for `CCCCCCCCSc1nnc(CSc2nc3nc(C)cc(C)n3n2)o1` it is 26.1 µM; for `CC(=O)c1c(C)[nH]c(C(=O)OCc2cccc(Cl)c2)c1C` it is 25.4 µM.
For `C/C(=N/NC(=O)c1cccs1)c1c(C)[nH]n(-c2nc3ccccc3s2)c1=O` the value was 16.2 µM; for `Cc1c(Cl)c([N+](=O)[O-])nn1Cc1ccc(C(=O)N/N=C\c2cc(Cl)ccc2O)o1`, 6.95 µM.
The figure for `CC(=O)c1c(C)[nH]c(C(=O)OCC(=O)Nc2ccc(Cl)cc2[N+](=O)[O-])c1C` is 2.82 µM.
Regarding `CC1CCCCC1NS(=O)(=O)c1ccc(S(=O)(=O)NCc2ccncc2)cc1` (stereo not given), the AC50 was 4.07 µM.
Consider `CCCCC[n+]1cccc2c3ccccc3ccc21`, for which the AC50 is 5.92 µM.
As to `Cc1ccc(C(=O)C[n+]2cc(-c3ccccc3)n3c2CCCCC3)cc1`, the AC50 is 6 µM.
As to `O=C(Nc1nc(-c2ccccn2)cs1)c1ccc([N+](=O)[O-])o1`, the AC50 was 6.03 µM.
For `C[n+]1c2n(c3ccccc31)N=C(c1ccc(Cl)cc1)CS2` the value was 4.29 µM.
The figure for `O=C(N/N=C\c1cc(Br)ccc1O)c1ccc(S(=O)(=O)N2CCCCC2)cc1` is 3.54 µM.
For `Cc1cc(N/N=C/c2ccccc2[N+](=O)[O-])nc(-n2nc(C)cc2C)n1`, the AC50 is 12.2 µM.
`C/C(=N\NC(=O)c1cc2ccccc2cc1O)c1ccccn1`: the AC50 is 2.66 µM.
For `Oc1cccc(C(Nc2nccs2)c2ccc3cccnc3c2O)c1` (stereo not given) the value was 2.54 µM.
For `COc1ccc(N(C(=O)CCl)C(C(=O)NCCc2ccccc2)c2cccs2)cc1Cl` (stereo not given) the value was 7.56 µM; for `COc1ccccc1NC(=O)c1cc2cc(Br)ccc2cc1O`, 7.8 µM; for `O=C(Nc1nc(-c2ccccn2)cs1)c1cc(Cl)ccc1[N+](=O)[O-]`, 4.6 µM.
Regarding `CCN(CC)c1ccc(/C=N/NC(=O)c2c(Cl)cnn2C)c(O)c1`, the AC50 is 1.5 µM.
As to `Cc1ccc(-c2c[n+](Cc3ccc(Cl)c(Cl)c3)c3n2CCC3)cc1`, the AC50 was 4.72 µM.
For `Cc1cc(C)n(-c2nc(NCCO)c3c4c(sc3n2)CCCC4)n1`, the AC50 is > 26 µM (inactive).
For `COc1ccccc1/C=C/CN1CCC(n2nccc2NC(=O)CCc2ccccc2)CC1` the value was 8.85 µM.
The figure for `C=CCSc1nsc(NC(=O)Nc2ccc(F)cc2)n1` is 3.4 µM; for `CCc1ccc(S(=O)(=O)/N=C2/C=C(Sc3ncn[nH]3)C(=O)c3ccccc32)cc1` it is 9.6 µM; for `CCOc1ccc(OCc2ccc(C(=O)NN=Cc3ccc[nH]3)cc2)cc1` it is 0.739 µM.
Turning to `CCOc1cc(S(=O)(=O)NCc2ccncc2)ccc1Cl`, the AC50 is 1.19 µM.
For `O=C(Nc1nc2ccc([N+](=O)[O-])cc2s1)c1ccc(S(=O)(=O)N2CCCc3ccccc32)cc1` the value was 2.63 µM; for `O=C1C(Cl)=C(NCCN2CCCCC2)C(=O)c2ccccc21`, 14.1 µM; for `CCOc1cc(N2CCOCC2)c(OCC)cc1NC(=O)COc1cccc2cccnc12`, 3.61 µM.
The figure for `CCCC(=O)NC(c1ccc2c(c1)OCO2)c1cc(Cl)c2cccnc2c1O` (stereo not given) is 4.39 µM; for `CCN(CC)S(=O)(=O)c1ccc(Oc2ccc(S(=O)(=O)N(CC)CC)cc2)cc1` it is 2.88 µM.
The figure for `O=C(NCc1nc(-c2ccc(C(F)(F)F)cc2)no1)Nc1cc(Cl)cc(Cl)c1` is 6.94 µM; for `Cc1ccc(C)c(S(=O)(=O)Nc2ccc(O)c3ccccc23)c1` it is 14.1 µM; for `Cc1ccc(C(=O)N/C(=C\c2ccc(-c3ccc(Cl)cc3)o2)C(=O)NCCCN(C)C)cc1` it is 10.9 µM.
Turning to `CCCCNc1c(-c2ccc(SC3CCCCC3)cc2)nc2ccccn12`, the AC50 is 5.31 µM.
For `CC(C)(C)OC(=O)NCc1ccc(NC(=O)c2nc[nH]c2C(=O)NCCNC(=O)c2[nH]cnc2C(=O)Nc2ccc(CNC(=O)OC(C)(C)C)cc2)cc1` the value was 10.8 µM; for `Cc1ccc(S(=O)(=O)Nc2ccccc2C(=O)Nc2nc(-c3ccc(F)cc3)cs2)cc1`, 2.92 µM; for `CCC(=O)NC(c1cc(Cl)c2cccnc2c1O)C(C)C` (stereo not given), 7.3 µM.
For `O=C(N/N=C/c1ccc(O)cc1O)c1ccc(NC(=O)C2CCCCC2)cc1` the value was 13 µM.
For `CCCCCc1ccc(OCCCC[n+]2cccc(C)c2)c(CCCCC)c1` the value was 2.1 µM.
Turning to `O=C(CNc1ccc(F)cc1)N/N=C/c1c(O)ccc2ccccc12`, the AC50 is 19.5 µM.
Regarding `C(=C\c1nc(N2CCCCCC2)c2ccccc2n1)/c1ccccc1`, the AC50 is 5.15 µM.
